# According to patent US12371453B2, “Polypeptide having antibacterial activity, composition for preventing or treating sepsis comprising same, and antibacterial composition” (priority 2019, dated 2025):
# Read-outs that look alike come from different tables or passages of the source. Square brackets hold non-standard residues; d marks the D form. Peptide text beside a SMILES is read from it.
# Assays:
# [1] = Calcein dye leakage from liposome mimicking human red blood cell membrane; type: biochemical; conditions: calcein-encapsulated liposome
# Experimental: (§1) To study an action mechanism for FP12-NH2, FP13-NH2, allD FP12-NH2, and allD FP13-NH2 peptides, the disruption ability of the peptides against liposomes mimicking a bacterial cell membrane and a red blood cell membrane was measured.
# (§2) EYPG is an abbreviation for egg yolk L-α-phosphatidyl-DL-glycerol, and EYPC is an abbreviation for egg yolk 1,2-diacyl-sn-glycero-3-phosphocholine. CH is an abbreviation for cholesterol. After dissolving the phospholipids composed according to the content of each component in chloroform, the chloroform was removed using a rotary evaporator, and lyophilization was performed overnight. Afterward, the dried lipid film was dissolved in a Tris-buffer solution, and calcein […]. After repeated freezing and thawing, the calcein-encapsulated liposome was manufactured using an extruder. Subsequently, after an excitation wavelength of a spectrofluorimeter (Shimadzu RF 5301 PC spectrofluorimeter, Japan) was set to 490 nm, and an emission wavelength was set to 520 nm, the peptide was administered to the liposome to measure relative dye leakage, provided that a 100% dye leakage was expressed as fluorescence intensity when 0.010% Triton-X100 was added.
# (§3) The upper graphs of FIG. 3 show the % dye leakage for an EYPC/EYPG (7:3, w/w) liposome mimicking bacterial cells, encapsulating a fluorescent dye, calcein, by a peptide according to a peptide concentration. […] The lower graphs of FIG. 3 show the % dye leakage for an EYPC/CH (10:1, w/w) liposome, which is […] mimicking a human red blood, encapsulating a fluorescent dye, calcein, by a peptide according to a peptide concentration.
# [2] = Calcein dye leakage from liposome mimicking gram-negative bacterial cell membrane; type: biochemical; conditions: calcein-encapsulated liposome
# Experimental: as §1, §2, §3
# [3] = tested on: E. coli; type: cell-based
# [4] = tested on: lipoprotein (LPP); test: LPP binding by ITC analysis; conditions: cell wall component of gram-positive bacteria (S. aureus)
# Description: The binding affinity to lipoteichoic acid (LTA) and lipoprotein (LPP), which are cell wall components of gram-positive bacteria (S. aureus), was confirmed through ITC analysis using allD FP13-NH2.
# The binding affinity was confirmed using the ITC analysis method, and the experimental method in Example 1 was applied mutatis mutandis.
# [5] = tested on: A. baumannii; type: cell-based
# [6] = Calcein dye leakage from liposome mimicking gram-positive bacterial cell membrane; type: biochemical; conditions: calcein-encapsulated liposome
# Experimental: To study the action mechanisms for FPT2-NH2, FPT3-NH2, allD FPT2-NH2, and allD FP13-NH2 peptides, the disruption ability of the peptides against a liposome mimicking a bacterial cell membrane was measured.
smiles,measurement,setting,value
CC(C)C[C@@H](NC(=O)[C@H](N)CCCCN)C(=O)N[C@H](CCCNC(=N)N)C(=O)N[C@@H](C(=O)N[C@H](CCCCN)C(=O)N[C@H](CC(C)C)C(=O)N[C@H](CCCNC(=N)N)C(=O)N[C@H](CCCNC(=N)N)C(=O)N[C@H](Cc1ccc(O)cc1)C(=O)N[C@H](CC(C)C)C(=O)N[C@H](CCCNC(=N)N)C(N)=O)C(C)C [allD FP13-NH2] (H-[dK][dL][dR][dV][dK][dL][dR][dR][dY][dL][dR]-NH2; N-terminus assumed),"dye leakage, PC/CH liposome mimicking a red blood cell membrane",[1],almost no dye leakage
same,"dye leakage, PC/PG (7:3, w/w) liposome mimicking a bacteria cell membrane",[2],high dye leakage
same,MIC50,[3],2 µM
same,MIC90,[3],4 µM
same,MIC90,[3]; E. coli + 0.8 uM Chymotrypsin,6(4~8) uM
same,MIC90,[3]; E. coli + 0.8 uM protease K,6(4~8) uM
same,binding to LPP (ITC),[4],binds
same,MIC50,[5],4 µM
same,MIC90,[5],8 µM
same,"dye leakage, EYPG/EYPC (6:4, w/w) liposome mimicking gram-positive bacterial cell membrane",[6],high dye leakage
